Data published in patent US8017649B2, “Flavonoid compounds and uses thereof” (Howard Florey Institute of Experimental Physiology and …, priority 2005, dated 2011).
“Also recorded” adds a separate entry of the source.

Experiments:
[1] = tested on: rat aorta precontracted with PE; assay: Direct relaxation of PE/U46619-precontracted rat aortic rings; format: cell-based
Experimental: Following testing of endothelial integrity, rings were repeatedly washed and re-equilibrated for 30 minutes before the addition of PE (10^−8−2×10^−7 M) and 9,11-dideoxy-9α, 11α-epoxymethano-prostaglandin F2α (U46619, 10^−9-10^−8 M) to produce an active force in the range of 40-60% of KPSS-induced contraction. The level of precontraction was matched between the various groups by adjusting the concentrations of PE and U46619. Cumulative concentration-response curves in the range 10^−8-10^−4 M were conducted for 3′,4′-dihydroxyflavonol, 3-hydroxyflavone-3-hemiadipate, 3′,4′-dihydroxy-3-hemiadipate, 3-hydroxyflavone-3-phosphate.
Experiments were conducted in the presence of an esterase, butyryl cholinesterase (BuCHE, 1000 U/L) for the hemiadipate derivates and a phosphatase 1000 U/L) in the case of the phosphate derivatives.
Following testing of endothelial integrity, rings were repeatedly washed and re-equilibrated for 30 minutes before the addition of PE (10^−8−2×10^−7 M) and 9,11-dideoxy-9α, 11α-epoxymethano-prostaglandin F2α (U46619, 10^−9-10^−7 M) to produce an active force in the range of 40-60% of KPSS-induced contraction. Cumulative concentration-response curves in the range 10^−7-10^−4 M were conducted for vehicle, 3′-hydroxyflavonol, F3HA, DiOHF3HA, F3P. Experiments were conducted in the presence and absence of 1000 U/L BuCHE to cleave the adipate in F3HA and DiOHF3HA. In experiments using F3P 1000 U/L phosphatase was used in some experiments to cleave the phosphate.

[2] = tested on: endothelium intact aortic rings; assay: Effect on ACh relaxation of precontracted rat aortic rings; format: cell-based; details: substance alone
Experimental: After wash out and re-equilibration for 30 min, the aortic rings were then submaximally precontracted with PE and U46619, which were used to produce an active tension of 45-60% of the KPSS-induced maximum contraction. When investigating the effects of the flavonoids, flavonol, flavone-3-hemiadipate (F3HA), 3′, 4′-dihydroxyflavone, 3′,4′-dihydroxyflavonol, 3′,4′-dihydroxyflavone-3-hemiadipate (DiOHF3HA), and flavone-3-phosphate (F3P) on vasorelaxant responses, rings were incubated with one of the compounds for 20 mins before they were precontracted submaximally, followed by a cumulative-concentration response curve to ACh (100 nM-10 μM) or SNP ([…]). In experiments using F3P 1000U/L phosphatase was used in some experiments to cleave the phosphate. Some experiments were conducted in the presence and absence of butyryl cholinesterase (BuCHE, 1000 U/L) to cleave the adipate in DiOHF3HA and F3HA.

[3] = tested on: endothelium-intact (EI) aortic rings; assay: PE-induced contraction of rat aortic rings; format: cell-based
Experimental: Rings were incubated for 20 minutes with DiOHF3HA at a range of concentrations (10^−7-10^−4 M) or vehicle (0.1% dimethyl sulphoxide, DMSO). A concentration response curve to PE (10^−9-10^−5 M) in endothelium-intact (EI) aortic rings was then performed. Experiments were conducted in the presence and absence of BuCHE (1000 U/L) to cleave the adipate in DiOHF3HA.

[4] = tested on: endothelium intact aortic rings; assay: Ca2+-induced contraction of rat aortic rings in Ca2+-free high-K+ solution; format: cell-based
Experimental: To determine the effect of flavonoids on responses to the influx of extracellular Ca^2+, contractile responses to exogenous application of Ca^2+ were examined in the presence of flavonoids in Ca^2+-free high-K^+ solution (60 mM, KPSS). Aortic rings were initially equilibrated at a resting tension of 1 g in normal Ca^2+-free PSS for 45 minutes. The bath medium was then replaced with Ca^2+-free KPSS for 45 minutes to determine a reference contraction to Ca^2+ (3×10^−3 M). Following a 30 minute re-equilibration period with Ca^2+-free PSS, the cumulative contractile responses to Ca^2+ (10^−5−3×10^−3 M) were determined in KPSS in the presence of a range of concentrations (10^−8-10^−4 M) of vehicle, 3′,4′-dihydroxyflavonol, 3-hydroxyflavone-3-hemiadipate, 3′,4′-dihydroxy-3-hemiadipate, 3-hydroxyflavone-3-phosphate. A 20 minute incubation period was allowed for the flavonoids before examining the responses to Ca^2+.
To determine the effect of flavonoids on responses to the influx of extracellular Ca^2+, contractile responses to exogenous application of Ca^2+ were examined in the presence of flavonoids in Ca^2+-free high-K^+ solution (60 mM, K+-PSS). Aortic rings were initially equilibrated at a resting tension of 1 g in Ca^2+-free PSS for 45 minutes. The bath medium was then replaced with Ca^2+-free K+-PSS for 45 minutes to determine a reference contraction to added Ca^2+ (3 mM). Following a 30 minute re-equilibration period with Ca^2+-free PSS, the cumulative contractile responses to Ca^2+ (10^−5−3×10^−3 M) were determined in K^+ PSS in the presence of vehicle (0.1% DMSO), or a range of concentrations (10^−7-10^−4 M) of 3′-hydroxyflavonol, F3HA, DiOHF3HA or F3P. A 20 minute incubation period was allowed for the flavonoids before examining the responses to Ca^2+. Experiments were conducted in the presence and absence of BuCHE (1000 U/L) to cleave the adipate in F3HA and DiOHF3HA. In experiments using F3P, phosphatase (1000 U/L) was used in some experiments to cleave the phosphate.

anaesthetised rats = assay: Arterial pressure and heart rate in anaesthetised rats after intravenous injection; format: in vivo, rat; details: for change in heart rate (HR) / change in mean arterial pressure (MAP): intravenous, anaesthetised rats
Experimental: A unit dosage of an aqueous solution of 3-hydroxyflavone-3-hemiadipate (15) was administered to a group of male anesthetized Sprague Dawley rats intravenously and the blood pressure monitored over a period of time.
Male Sprague-Dawley rats (250-350 g) were anaesthetised with pentobarbitone sodium (60 mg kg^−1, ip). The trachea was isolated and cannulated with polyethylene tracheal tube (I.D. 2.0 mm), and the rat was allowed to breathe spontaneously.
The right carotid artery was cannulated and connected with a heparinised saline filled cannula (O.D. 0.75, I.D, 0.58 mm) and connected to a pressure transducer. Mean and phasic arterial pressure were continuously measured and recorded on a polygraph. The heart rate, was derived from the phasic arterial pressure using a tachometer.
DiOHF3HA ([…]) was injected intravenously, allowing at least 30 min between injections, and the peak changes in mean arterial pressure and heart rate measured. […] In a separate group of experiments ACh (0.3 mg/kg iv) and phenylephrine (PE, […]) were injected before and 30 minutes after DiOHF3HA (3 mg/kg iv), a time when arterial pressure and heart rate had returned to control levels. […]

[5] = tested on: myocardial ischaemia and reperfusion; details: Wang et al., British Journal of Pharmacology (2004) 142, 443-452; cited from earlier work
[6] = 30 min after DiOHF3HA 3 mg/kg iv

SMILES: O=C(O)CCCCC(=O)Oc1c(-c2ccc(O)c(O)c2)oc2ccccc2c1=O [DiOHF3HA, 3′,4′-dihydroxyflavone-3-hemiadipate]
- direct relaxing effect on precontracted vessels ([1]; DiOHF3HA plus 1000 U/L BuCHE): marked effect on vascular tone; also recorded: direct relaxation of pre-contracted rat aortic rings only in the presence of the esterase; also recorded: cause direct relaxation of rat aortic rings
- direct relaxing effect on precontracted vessels ([1]; substance alone): no effect on PE precontracted vessels
- effect on relaxant response to ACh [2]: no effect on relaxant responses to ACh or SNP
- effect on PE-induced contraction ([3]; alone, 0.1 mM): no effect on PE-induced contraction
- effect on PE-induced contraction ([3]; in the presence of esterase (BuCHE)): inhibit the response to PE in a concentration dependent manner; also recorded: marked inhibition
- Maximum Contraction (percent 3 mM Ca^2+) ([4]; 10^−4 M + BuCHE): 35 ± 6 percent 3 mM Ca^2+
- Maximum Contraction (percent 3 mM Ca^2+) ([4]; 10^−4 M, without BuCHE): 101 ± 1 percent 3 mM Ca^2+
- effect on Ca^2+-induced contraction ([4]; alone, highest concentration 10^−4 M): slight Ca2+ inhibitory action
- effect on Ca^2+-induced contraction ([4]; alone, over the concentration range tested): little effect on calcium-induced contraction
- effect on Ca^2+-induced contraction ([4]; in the presence of BuCHE or phosphatase (1000 U/L)): markedly enhanced the inhibitory effect; also recorded: equivalent inhibitory effect to DiOHF; also recorded: inhibit calcium-induced contraction
- PE-induced increase in arterial pressure (anaesthetised rats; [6]): diminished; also recorded: attenuated the PE-induced increase in arterial pressure
- depressor response to ACh (anaesthetised rats; [6]): significantly enhanced the depressor response to ACh
- change in heart rate (HR) (anaesthetised rats): dose-dependent decrease in HR; also recorded: dose-dependent decreases; also recorded: concentration dependent decreases
- change in mean arterial pressure (MAP) (anaesthetised rats): dose-dependent decrease in MAP; also recorded: dose-dependent decreases; also recorded: concentration dependent decreases

SMILES: O=c1c(O)c(-c2ccc(O)c(O)c2)oc2ccccc12 [DiOHF, 3′,4′-Dihydroxyflavonol, reference compound]
- infarct and injury associated with myocardial ischaemia and reperfusion [5]: reduce Infarct and injury associated with myocardial ischaemia and reperfusion
- effect on PE-induced contraction ([3]; alone, 0.1 mM): inhibit the response to PE in a concentration dependent manner
- Maximum Contraction (percent 3 mM Ca^2+) ([4]; 10^−4 M, without BuCHE): 18 ± 2 percent 3 mM Ca^2+
- change in heart rate (HR) (anaesthetised rats): dose-dependent decrease in HR
- change in mean arterial pressure (MAP) (anaesthetised rats): dose-dependent decreases in MAP
